The text below walks through data of patent US5597822A, “Pharmaceutical compositions for the prevention and/or treatment a gastrointestinal diseases” (Egis Pharmaceutical, priority 1993, dated 1997).

Data set [1] concerns gastric erosions induced by ethanol containing hydrochloric acid. The data set is described as follows: Test with ethanol containing hydrochloric acid (gastric erosions). To be noted: for ED50: po, rat, p.o., HCl/absolute ethanol 1 to 50. The class given is in vivo, rat. The protocol:
(§1) Rats of both sexes weighing 200 to 250 g, each previously starved for 24 hours, were used in this experiment. The lesions of gastric mucosa were induced by the oral administration of absolute ethanol in a dose of 1 ml/animal. After one hour following the administration, the animals were killed by an overdose of ether, the stomach was excised and the alterations of gastric mucosa were examined. The lengths of the erosions were measured and summarized (expressed in mm) for each stomach to obtain the erosion index by calculating the average value of the group. The inhibition was calculated in percentage by comparing the value of the group treated with ethanol to that of the control group treated only with the vehicle. Various doses of the compounds to be tested were administered, perorally, in a volume of 5 ml/kg using a pretreatment time of 60 minutes. Eight rats were used for each dose. /A. Robert, Gastroenterology 77, 761-767 (1979)/.
The principle of the method consists in that, simultaneously with the administration of absolute ethanol, hydrochloric acid is introduced to the stomach. Thus, the influence on systemic gastric acid inhibition action can be eliminated by the presence of the exogenous acid.
The reagent used in this test was a mixture of concentrated aqueous hydrochloric acid and absolute ethanol in a mass ratio of 1 to 50 in accordance with the dilution ratio used by Yamazaki et al., see Japan J. Pharmacol., 55, 415-424 (1991). Otherwise, the experiment was performed as described under test 2.1., however, in addition to the erosion index calculated from the lengths of the erosions in mm, the ratio of occurence of animals showing at least one gastric erosion within a test group, i.e. the erosion frequency, was also evaluated.

Another data set can be described thus: in vivo. Conditions: mouse, po, NMRI mice, 7 days, "higher than" = highest dose administered without any death. As for the experimental part:
The acute toxicity was determined on NMRI strain mice of both sexes weighing 20 to 25 g each by using 6 animals for each dose. The compounds to be tested were administered perorally in a volume of 20 ml/kg, the highest dose applied was 1000 mg/kg. After the administration the animals were kept under usual laboratory conditions for 7 days.
The data given as "higher than" a certain value mean the highest dose administered without noting any death of animals.

The test system of a further data set is Helicobacter pylori. The data set is described as follows: Antibacterial effect on Helicobacter pylori (MIC, blood agar). The class given is cell-based. To be noted: for MIC: Helicobacter pylori, 72 h. The protocol:
Helicobacter pylori strains used in these experiments were obtained from the biopsial samples of the stomachs of patients suffering from ulcerative diseases of the gastrointestinal system. From the pure culture of isolates a thick suspension was prepared with cysteine-inositol solution suitable for lyophilisation, and the suspension obtained was maintained in cold-resistant plastic ampoules in a deep-freezing chamber at a temperature of about -196 ° C. For the determination of the inhibitory effect of the compounds tested on Helicobacter pylori, blood agar containing 10 mg/liter of vancomycin and 25 mg/liter of amphotericin B was used /C. A. M. McNulty and I. C. Dent: Susceptibility of clinical isolates of Campylobacter pylori to twenty one antimicrobial agents. Book of Abstracts, 4th European Congress of Clinical Microbiology, Nice (1989)/.
The plates containing the strains were cultivated at 37° C. for 72 hours under a gaseous atmosphere containing 10 per cent of carbon dioxide and 5 per cent of oxygen /D. M. Jones et al., J. Clin. Pathol., 37, 1002 (1984)/.
The culture media were inoculated by diluting the broth culture of the strains grown overnight or with a suspension prepared from a culture obtained on a solid medium. About 10^5 of germs were applied to the surface of each plate.
A series of dilution were prepared from the compound to be-tested. The MIC (minimal inhibiting concentration) value of the compounds tested was considered to be the lowest concentration inhibiting the growth of the test organism completely.

Data set [2] deals with gastric mucosa lesions induced by absolute ethanol. The data set is described as follows: Gastroprotective activity, test with absolute ethanol (gastric mucosa erosions). Format: in vivo, rat. To be noted: for ED50: po, rat, 60 min pretreatment, absolute ethanol 1 ml/animal, erosion index. As for the experimental part:
as §1
^x Relative activity = ED50 value of the gastric acid inhibition
related to the ED50 value of the inhibition of the gastric erosion.

Another data set has as its system gastric acid secretion. The data set is described as follows: Effect on the gastric acid secretion (Shay's method, pylorus ligation). Format: in vivo, Wistar rats. To be noted: rat, p.o., test according to Shay. The protocol:
The influence of the compounds on the gastric acid secretion was examined on starved Wistar rats of both sexes weighing 180 to 240 g each by using Shay's method /H. Shay et al., Gastroenterology, 5, 45 (1945)/. The compounds to be tested were given, perorally, 3 hours before the ligation of the pylorus. Four hours after the operation, the animals were killed by an overdose of ether, the stomach was excised, the stomach content was centrifuged and the free hydrochloric acid content of the gastric juice was determined by titration in the presence of Topfer's reagent. The percentage of inhibition and then the ED50 values were determined by calculating average values for the groups and comparing those to the average values for the control group.

The mark [3] stands for this setting: erosion index, read-out: Inhibition of the erosion index, ED50 p.o.

Values after ≈ are worked out from the molar mass of the structure shown. Like-named read-outs stand apart in the source and are kept apart here.

For `CCCCCCNCC(O)CO/N=C1\CCCC\C1=C/c1ccccc1` (racemic) [Compound C, (R,S)-2-(E)-(phenylmethylene)-1-(E)-[(3-hexylamino-2-hydroxypropoxy)imino]cyclohexane], the median effective dose (ED50) (as a rule, the dose that gives a 50% effect, or the effect in half of the subjects) in data set [1] (setting [3]) worked out at 11.5 mg/kg. In “in vivo”, the 50% lethal dose (LD50) – broadly, the dose expected to kill half of the subjects tested – at 168 h is greater than 1000 mg/kg. Besides, the MIC (usually the lowest concentration found to suppress growth) against Helicobacter pylori (strain 867/90) was 3.9 µg/mL (≈ 10.9 µM); with Helicobacter pylori (strain 1596) it was 7.8 µg/mL (≈ 21.8 µM); against Helicobacter pylori (strain 3842), 3.9 µg/mL (≈ 10.9 µM); against Helicobacter pylori (strain 6656) it was 3.9 µg/mL (≈ 10.9 µM); against Helicobacter pylori (strain 6709) it was 3.9 µg/mL (≈ 10.9 µM).
Take `CN(CC(O)CO/N=C1\CCCC\C1=C/c1ccc(Cl)cc1)C1CCCCC1` (racemic) [Compound D, (R,S)-2-(E)-(4-chlorophenylmethylene)-1-(E)-[3'-(N-methyl-N-cyclohexylamino)-2'-hydroxypropoxyimino]cyclohexane]: the “Inhibition of the erosion index, relative activity” value in data set [1] (ED50 of cetraxate divided by ED50 of compound tested, erosion index) was 4.2. For the same compound, the median effective dose (ED50) in data set [1] (erosion frequency, read-out: Inhibition of the erosion frequency, ED50 p.o.) was 8.3 mg/kg; in data set [1] (setting [3]) it was 5.2 mg/kg; in data set [2] it was 2.6 mg/kg. In addition, the “Inhibition of the erosion frequency, relative activity” value in data set [1] (related to cetraxate, erosion frequency) is reported as 22.8. The same compound returned an LD50 at 168 h in the data set “in vivo” greater than 1000 mg/kg. Further, the MIC against Helicobacter pylori (strain 867/90), against Helicobacter pylori (strain 1596), with Helicobacter pylori (strain 3842), with Helicobacter pylori (strain 6656) and against Helicobacter pylori (strain 6709) was 15.6 µg/mL (≈ 38.5 µM) throughout. Moreover, the “Relative activity related to the inhibition of the free acid” value in data set [2] (ED50 of gastric acid inhibition (Shay) related to ED50 of inhibition of gastric erosion) is reported as 32.3.
Consider `NC[C@H]1CC[C@H](C(=O)Oc2ccc(CCC(=O)O)cc2)CC1` [cetraxate, trans-3-[4-[4-(aminomethyl)cyclohexylcarbonyloxy]phenyl]-propionic acid, reference compound], for which the ED50 worked out at 22 mg/kg in data set [1] (setting [3]) and 76.4 mg/kg in data set [2]. Further, the “gastric acid secretion inhibition (in words)” value with gastric acid secretion is on record as “only a moderate gastric acid secretion inhibition”. The MIC in the data set on Helicobacter pylori (Table IV, strains not specified, unit inferred) is greater than 500 µg/mL; against Helicobacter pylori (strain 867/90), greater than 500 µg/mL; with Helicobacter pylori (strain 1596) it was greater than 500 µg/mL; in the data set on Helicobacter pylori (strain 3842), greater than 500 µg/mL; in the data set on Helicobacter pylori (strain 6656), greater than 500 µg/mL; with Helicobacter pylori (strain 6709), greater than 500 µg/mL. In the data set on Helicobacter pylori (Table IV), the “effect on Helicobacter pylori (in words)” value was “ineffective at the concentration indicated”. Further, the “gastroprotective activity (in words)” value in data set [2] (test with absolute ethanol) was “nearly identical activity”.
